We go through five molecules from patent publication US4496521A, “Insulin-potentiating peptides” (The Whittier Institute for Diabetes and Endocrinology, priority 1983, dated 1985).

The subject of experiment [1] is VY-F-1 hybrid yellow mice. Kind of experiment: (U-14C)-D-glucose incorporation in tissues of mice after a glucose load. It is filed as in vivo. How it is done: containing an appropriate amount of (U-^14 C)-D-glucose (Amersham Radiochemicals, Arlington Heights, IN) so that about 8×10^5 dpm of radiolabeled glucose was given per mouse. Sixty minutes after administration of the mixture, the mice were sacrificed and fragments of liver, diaphragm, and adipose tissue were quickly excised and weighed in a torsion balance. The pieces were placed in vials and digested for 2 hr at 55° C. in 1 molar KOH. After cooling to room temperature, the scintillation liquid was added to the vials. Radioactivity was measured the next day, and an average efficiency of 60% was measured using the internal standard method. Samples of blood were collected at the desired time by intraorbital puncture. Glucose content in the chilled plasma was determined in triplicates by the glucose oxidase method. Blood concentration of radioactive glucose was determined using 20 μl of plasma. Glucose incorporation (GI), expressed in arbitrary units, was calculated by the following equation for the various tissues: [formula] The specific activity of plasma glucose is defined as disintegrations per minute of radioactivity×1000 per 100 μl plasma, divided by milligrams of glucose per 100 ml. of plasma. Statistical significance was determined by 1-way analysis of variance and Duncan's multiple range t-test. Yellow (A^vy /A) and agouti (A/a) virgin (BALB/c×VY)F-1 hybrid female mice were produced by mating BALB/[…] females by […] males. The mice were housed 3 per 7"×5"×11" polypropylene cage with pine shavings as bedding and fed Wayne Lab Blox (Allied Mills, Inc.) 10% fat diet and tap water ad libitum. Ambient temperature was about 22±1° C., and a 12 hr light cycle was maintained. […] Whereas the effect upon the incorporation of glucose in the diaphragm was of lesser magnitude, it is possible that the values represent the maximal rate of glucose utilization by this muscle. […] Further testing was carried out on other mice to show the effect of insulin on the utilization of glucose in similar mice. Because the animals were obese and a maximal effect was desired, a large amount of hormone (50 milliunits per mouse) were used.

The nature of experiment [2]: Plasma glucose in mice given a glucose load (glucose oxidase method). In kind it is in vivo. Conditions: for Plasma Glucose 0 min: sample at 0 min; for Plasma Glucose 60 min: sample at 60 min. The protocol:
Injections were made intraperitoneally 30 min before administration of a glucose load of 2 mg/g of body weight containing an appropriate amount of (U-^14 C)-D-glucose (Amersham Radiochemicals, Arlington Heights, IN) so that about 8×10^5 dpm of radiolabeled glucose was given per mouse. Sixty minutes after administration of the mixture, the mice were sacrificed and fragments of liver, diaphragm, and adipose tissue were quickly excised and weighed in a torsion balance. The pieces were placed in vials and digested for 2 hr at 55° C. in 1 molar KOH. After cooling to room temperature, the scintillation liquid was added to the vials. Radioactivity was measured the next day, and an average efficiency of 60% was measured using the internal standard method. Samples of blood were collected at the desired time by intraorbital puncture. Glucose content in the chilled plasma was determined in triplicates by the glucose oxidase method. Blood concentration of radioactive glucose was determined using 20 μl of plasma. Glucose incorporation (GI), expressed in arbitrary units, was calculated by the following equation for the various tissues: [formula]
Further testing was carried out on other mice to show the effect of insulin on the utilization of glucose in similar mice. Because the animals were obese and a maximal effect was desired, a large amount of hormone (50 milliunits per mouse) were used.

The nature of experiment [3]: Hypoglycemic activity of insulin when the peptide is given together with insulin. In kind it is in vivo.
Experiment [4] concerns adipose tissue from hypophysectomized rats. Put plainly: Stimulation of glucose oxidation in adipose tissue from hypophysectomized rats. Conditions: for ability to stimulate glucose oxidation in adipose tissue: native peptides at concentrations up to 50 μg per ml. In kind it is cell-based. The source says: Biochem., 11, 559-570. The detailed extraction procedure actually employed is set forth in "Human Growth Hormone Peptide 1-43: Isolation from Pituitary Glands", Singh et al., J. Protein Chem., (in press) (1983).

For experiment [5] the following is noted: mice; Frigeri et al., Endocrine Society Abstract #88; cited from earlier work.
Where [6] appears, read: Table I, increase versus saline, 50 μg, 30 min before glucose.
Setting [7] is: Table IA, increase versus saline, 50 μg, 30 min before glucose.
Where [8] appears, read: Group B: insulin 50 mU per mouse 30 min before glucose.
Setting [9] is: Group B: insulin 50 mU per mouse 30 min before glucose, listed as insulin.
[10] abbreviates: Group C: insulin 50 mU per mouse 5 min before glucose load.
[11] abbreviates: Group C: insulin 50 mU per mouse 5 min before glucose load, listed as insulin.

Take `CC[C@H](C)[C@H](NC(=O)[C@H](Cc1ccc(O)cc1)NC(=O)[C@H](C)NC(=O)[C@H](CCC(=O)O)NC(=O)[C@H](CCC(=O)O)NC(=O)[C@H](Cc1ccccc1)NC(=O)[C@H](CCC(=O)O)NC(=O)[C@H](CCC(N)=O)NC(=O)[C@H](Cc1ccc(O)cc1)NC(=O)[C@@H](NC(=O)[C@H](CC(=O)O)NC(=O)[C@H](Cc1ccccc1)NC(=O)[C@H](C)NC(=O)[C@H](CC(C)C)NC(=O)[C@H](CCC(N)=O)NC(=O)[C@H](Cc1c[nH]cn1)NC(=O)[C@H](CC(C)C)NC(=O)[C@H](CCCNC(=N)N)NC(=O)[C@H](Cc1c[nH]cn1)NC(=O)[C@H](C)NC(=O)[C@H](CCCNC(=N)N)NC(=O)[C@H](CC(C)C)NC(=O)[C@H](CCSC)NC(=O)[C@H](C)NC(=O)[C@H](CC(N)=O)NC(=O)[C@H](CC(=O)O)NC(=O)[C@H](Cc1ccccc1)NC(=O)[C@H](CC(C)C)NC(=O)[C@H](CCCNC(=N)N)NC(=O)[C@H](CO)NC(=O)[C@H](CC(C)C)NC(=O)[C@@H]1CCCN1C(=O)[C@@H](NC(=O)[C@@H](NC(=O)[C@@H]1CCCN1C(=O)[C@@H](N)Cc1ccccc1)[C@@H](C)O)[C@@H](C)CC)[C@@H](C)O)C(=O)N1CCC[C@H]1C(=O)N[C@@H](CCCCN)C(=O)N[C@@H](CCC(=O)O)C(=O)N[C@@H](CCC(N)=O)C(=O)N[C@@H](CCCCN)C(=O)N[C@@H](Cc1ccc(O)cc1)C(=O)N[C@@H](CO)C(=O)O` [hGH(1-43), H--Phe--Pro--Thr--Ile--Pro--Leu--Ser--Arg--Leu--Phe--Asp--Asn--Ala--Met--Leu--Arg--Ala--His--Arg--Leu--His--Gln--Leu--Ala--Phe--Asp--Thr--Tyr--Gln--Glu--Phe--Glu--Glu--Ala--Tyr--Ile--Pro--Lys--Glu--Gln--Lys--Tyr--Ser--OH]: the “Glucose Incorporation Diaphragm” value in experiment [1] (Table I, 50 μg intraperitoneally 30 min before glucose load, Mean ± SEM) is 52.0 arbitrary units/g of tissue. Also, the “Glucose Incorporation Liver” value in experiment [1] (Table I, 50 μg intraperitoneally 30 min before glucose load, tissue 60 min after glucose, Mean ± SEM) was 135.9 arbitrary units/g of tissue. Besides, in experiment [1] (setting [6]), the “Glucose Incorporation Adipose Tissue (%)” value was 63% and the “Glucose Incorporation Diaphragm (%)” value turned out to be 17%. In experiment [1] (Table IA, 50 μg 30 min before glucose load, Mean ± SEM), the “Glucose Incorporation Liver” value is 115.2 ± 16 arbitrary units/g of tissue. In experiment [1] (setting [7]), the “Glucose Incorporation Liver (%)” value came out at 35%. Besides, in experiment [2] (after administration of hGH(1-43)), the “change of plasma glucose after administration of the peptide” value is recorded as “no significant decrease”. Also, in experiment [3], the “hypoglycemic activity of insulin” value is reported as “an increase of its hypoglycemic activity is observed”. Moreover, the “stimulation of in vitro glucose oxidation in adipose tissue” value in experiment [4] (in vitro) is recorded as “does not stimulate”. Also, in experiment [4], the “ability to stimulate glucose oxidation in adipose tissue” value was “inactive”.

As for “GH: purified growth hormone, used as active comparator in the glucose oxidation assay”, in experiment [4] (purified GH), the “level at which glucose oxidation stimulating activity is shown” value stood at 0.2 ng per ml.

With “H-AHRLHQLAFDTYQEFEEAYIPKEQKYS-OH [hGH(17-43), H--Ala--His--Arg--Leu--His--Gln--Leu--Ala--Phe--Asp--Thr--Tyr--Gln--Glu--Phe--Glu--Glu--Ala--Tyr--Ile--Pro--Lys--Glu--Gln--Lys--Tyr--Ser--OH]”, the “Glucose Incorporation Liver (%)” value in experiment [1] (setting [7]) is given as about 35%. For the same molecule, the “ability to stimulate glucose oxidation in adipose tissue” value in experiment [4] was “inactive”.

On to “Insulin: hormone which controls storage and oxidation of sugar; given at 50 mU per mouse”, for which the “Glucose Incorporation Adipose Tissue” value in experiment [1] (setting [8]) was 9.1 ± 0.82 arbitrary units/g of tissue; in experiment [1] (setting [9]) it was “rose”; in experiment [1] (setting [10]), 9.0 ± 1.05 arbitrary units/g of tissue; in experiment [1] (setting [11]), “rose to values similar to those observed in the -30 minute treated group”. Moreover, the “Glucose Incorporation Diaphragm” value is 54.4 ± 2.8 arbitrary units/g of tissue in experiment [1] (setting [8]), “rose” in experiment [1] (setting [9]), 52.2 ± 2.4 arbitrary units/g of tissue in experiment [1] (setting [10]) and “rose to values similar to those observed in the -30 minute treated group” in experiment [1] (setting [11]). For the same molecule, the “Glucose Incorporation Liver” value in experiment [1] (setting [8]) is 36.6 ± 2.6 arbitrary units/g of tissue; in experiment [1] (setting [9]), “fell sharply below control levels”; in experiment [1] (setting [10]), 64.4 ± 9.5 arbitrary units/g of tissue; in experiment [1] (setting [11]), “remained unchanged”. In addition, the “Plasma Glucose 0 min” value in experiment [2] (setting [8]) is 70 ± 8.3 mg/dL; in experiment [2] (setting [9]), “dropped sharply”; in experiment [2] (setting [10]), 151. ± 9.5 mg/dl. Further, the “Plasma Glucose 60 min” value was 182 ± 11.8 mg/dL in experiment [2] (setting [8]) and 270 ± 31 mg/dL in experiment [2] (setting [10]). For the same molecule, the “Plasma Glucose -30 min” value in experiment [2] (Group B: insulin 50 mU per mouse 30 min before glucose, sample at -30 min) came to 122 ± 2.8 mg/dL. Also, the “Plasma Glucose -5 min” value in experiment [2] (Group C: insulin 50 mU per mouse 5 min before glucose load, sample at -5 min) amounted to 129 ± 6.5 mg/dL.

Turning to “fragment corresponding to amino acid residues 32-46: fragment corresponding to amino acid residues 32-46 of human GH (literature) (EEAYIPKEQKYSFLQ; UniProt P01241 58-72, looked up, fragment)”, the glucose tolerance entry in experiment [5] was “could improve the glucose tolerance”.
